# Results reported in patent publication US9995734B2, “Human T cell line assay for evaluating the immunologic identity of glatiramer acetate preparations” (Mylan Inc., priority 2013, dated 2018).
# Columns and labels:
# [1] = system: Donor 4 COP T-Cell Lines; assay: ATP proliferation assay (CellTiter Glo), Donor 4 COP T-cell lines, incl. reactivity to non-canonical GA peptides; assay type: cell-based, human; conditions: for response to GMA in comparison to COP: 205-1F4, 10 μg/mL dose; for Mean, ATP proliferation assay: Cell Line 205-1F4; for Proliferation (luminescent ATP assay), Mean: T-cell line 205-1F4, autologous B-LCL; for Reactivity (proliferation), Mean: T-cell line 205-1H3, 0 μg/mL 4121.0
# [2] = system: Donor 3 GMA T-Cell Lines; assay: ATP proliferation assay (CellTiter Glo), Donor 3 GMA T-cell lines, incl. reactivity to non-canonical GA peptides; assay type: cell-based, human; conditions: for ATP proliferation assay: Day 14
substance,measurement,setting,value
glatiramer acetate [GMA],response to GMA in comparison to COP,[1]; Day 50 (Table 27),102.7%
same,response to GMA in comparison to COP,[1]; Day 58 (Table 28),98.5%
same,response to GMA in comparison to COP,[1]; Day 71,101.3%
same,"Mean, ATP proliferation assay","[1]; Day 50, 1 μg/mL",17341
same,"Mean, ATP proliferation assay","[1]; Day 50, 3 μg/mL",195335
same,"Mean, ATP proliferation assay","[1]; Day 50, 10 μg/mL",218954
same,"Mean, ATP proliferation assay","[1]; Day 58, 3 μg/mL",29921
same,"Mean, ATP proliferation assay","[1]; Day 58, 10 μg/mL",30998
same,"Mean, ATP proliferation assay","[1]; Day 58, 30 μg/mL",33915
same,"Mean, ATP proliferation assay","[1]; Day 58, 100 μg/mL",32698
same,"Proliferation (luminescent ATP assay), Mean","[1]; Day 71, 1 μg/mL antigen",17341
same,"Proliferation (luminescent ATP assay), Mean","[1]; Day 71, 3 μg/mL antigen",195335
same,"Proliferation (luminescent ATP assay), Mean","[1]; Day 71, 10 μg/mL antigen",218954
same,"Proliferation (luminescent ATP assay), Mean","[1]; Day 80, 1 μg/mL antigen","7,477"
same,"Proliferation (luminescent ATP assay), Mean","[1]; Day 80, 2 μg/mL antigen","64,999"
same,"Proliferation (luminescent ATP assay), Mean","[1]; Day 80, 5 μg/mL antigen","83,107"
same,"Proliferation (luminescent ATP assay), Mean","[1]; Day 80, 10 μg/mL antigen","67,482"
same,"Reactivity (proliferation), Mean",[1]; 1 μg/mL antigen,37654.3
same,"Reactivity (proliferation), Mean",[1]; 3 μg/mL antigen,55284.3
same,"Reactivity (proliferation), Mean",[1]; 10 μg/mL antigen,60841.7
same,ratio of proliferation in response to GMA:control (APC only),[2],greater than 3.0
same,ATP proliferation assay,"[2]; 165-B2G, 10 μg/mL, control 9692",28770 RLU
same,response in proliferation assay,"[2]; 165-B5G, 165-D8G, 165-E7G, 165-F5G, Day 56, 0, 1, 5, 10, 100 μg/mL, GMA and COP responses comparable",responded well
same,ATP proliferation assay,"[2]; 165-B5G, 10 μg/mL, control 15423",63023 RLU
same,ATP proliferation assay,"[2]; 165-B11G, 10 μg/mL, control 18412",56588 RLU
same,ATP proliferation assay,"[2]; 165-C4G, 10 μg/mL, control 14869",62306 RLU
same,ATP proliferation assay,"[2]; 165-C5G, 10 μg/mL, control 14240",76296 RLU
same,ATP proliferation assay,"[2]; 165-C8G, 10 μg/mL, control 18205",79281 RLU
same,ATP proliferation assay,"[2]; 165-D8G, 10 μg/mL, control 30331",136938 RLU
same,ATP proliferation assay,"[2]; 165-E7G, 10 μg/mL, control 18215",66364 RLU
same,ATP proliferation assay,"[2]; 165-E9G, 10 μg/mL, control 17059",52948 RLU
same,ATP proliferation assay,"[2]; 165-F2G, 10 μg/mL, control 14734",44951 RLU
same,ATP proliferation assay,"[2]; 165-F5G, 10 μg/mL, control 16943",100677 RLU
same,ATP proliferation assay,"[2]; 165-F8G, 10 μg/mL, control 17986",72716 RLU
same,ATP proliferation assay,"[2]; 165-F10G, 10 μg/mL, control 13314",42447 RLU
same,ATP proliferation assay,"[2]; 165-H11G, 10 μg/mL, control 17149",52850 RLU
same,"Proliferation (luminescent ATP assay), Mean","[2]; T-cell line 165-05G, 1 μg/mL antigen, Day 50 of culturing, No Antigen Value 2149",3999 RLU
same,"Proliferation (luminescent ATP assay), Mean","[2]; T-cell line 165-05G, 3 μg/mL antigen, Day 50 of culturing, No Antigen Value 2149",35643 RLU
same,"Proliferation (luminescent ATP assay), Mean","[2]; T-cell line 165-05G, 10 μg/mL antigen, Day 50 of culturing, No Antigen Value 2149",53130 RLU
same,"Proliferation (luminescent ATP assay), Mean","[2]; T-cell line 165-05G, 30 μg/mL antigen, Day 50 of culturing, No Antigen Value 2149",55596 RLU
same,"Mean, ATP proliferation assay","[2]; T-cell line 165-B2G, 1 μg/mL, Day 40",4034
same,"Mean, ATP proliferation assay","[2]; T-cell line 165-B2G, 3 μg/mL, Day 40",20994
same,"Mean, ATP proliferation assay","[2]; T-cell line 165-B2G, 10 μg/mL, Day 40",38244
same,"Mean, ATP proliferation assay","[2]; T-cell line 165-B5G, 1 μg/mL, Day 40",3866
same,"Proliferation (luminescent ATP assay), Mean","[2]; T-cell line 165-B5G, 1.25 μg/mL antigen, Day 55 of culturing, No Antigen Value 846",1406 RLU
same,"Proliferation (luminescent ATP assay), Mean","[2]; T-cell line 165-B5G, 2.5 μg/mL antigen, Day 55 of culturing, No Antigen Value 846",2537 RLU
same,"Mean, ATP proliferation assay","[2]; T-cell line 165-B5G, 3 μg/mL, Day 40",6591
same,"Proliferation (luminescent ATP assay), Mean","[2]; T-cell line 165-B5G, 5 μg/mL antigen, Day 55 of culturing, No Antigen Value 846",5205 RLU
same,"Proliferation (luminescent ATP assay), Mean","[2]; T-cell line 165-B5G, 10 μg/mL antigen, Day 55 of culturing, No Antigen Value 846",11364 RLU
same,"Mean, ATP proliferation assay","[2]; T-cell line 165-B5G, 10 μg/mL, Day 40",12367
same,"Mean, ATP proliferation assay","[2]; T-cell line 165-C4G, 1 μg/mL, Day 40",3434
same,"Mean, ATP proliferation assay","[2]; T-cell line 165-C4G, 3 μg/mL, Day 40",6312
same,"Mean, ATP proliferation assay","[2]; T-cell line 165-C4G, 10 μg/mL, Day 40",19169
same,"Mean, ATP proliferation assay","[2]; T-cell line 165-C5G, 1 μg/mL, Day 40",12236
same,"Proliferation (luminescent ATP assay), Mean","[2]; T-cell line 165-C5G, 1.25 μg/mL antigen, autologous B-LCL",2511 RLU
same,"Proliferation (luminescent ATP assay), Mean","[2]; T-cell line 165-C5G, 2.5 μg/mL antigen, autologous B-LCL",26253 RLU
same,"Mean, ATP proliferation assay","[2]; T-cell line 165-C5G, 3 μg/mL, Day 40",36288
same,"Proliferation (luminescent ATP assay), Mean","[2]; T-cell line 165-C5G, 5 μg/mL antigen, autologous B-LCL",67559 RLU
same,"Proliferation (luminescent ATP assay), Mean","[2]; T-cell line 165-C5G, 10 μg/mL antigen, autologous B-LCL",74630 RLU
same,"Mean, ATP proliferation assay","[2]; T-cell line 165-C5G, 10 μg/mL, Day 40",45444
same,"Mean, ATP proliferation assay","[2]; T-cell line 165-C8G, 1 μg/mL, tested with the Donor 3 COP lines of Table 25",5605 RLU
same,"Mean, ATP proliferation assay","[2]; T-cell line 165-C8G, 3 μg/mL, tested with the Donor 3 COP lines of Table 25",5002 RLU
same,"Mean, ATP proliferation assay","[2]; T-cell line 165-C8G, 10 μg/mL, tested with the Donor 3 COP lines of Table 25",30200 RLU
same,"Mean, ATP proliferation assay","[2]; T-cell line 165-D8G, 1 μg/mL, Day 40",9427
same,"Mean, ATP proliferation assay","[2]; T-cell line 165-D8G, 3 μg/mL, Day 40",12644
same,"Mean, ATP proliferation assay","[2]; T-cell line 165-D8G, 10 μg/mL, Day 40",31264
same,"Mean, ATP proliferation assay","[2]; T-cell line 165-E7G, 1 μg/mL, Day 40",2569
same,"Proliferation (luminescent ATP assay), Mean","[2]; T-cell line 165-E7G, 1.25 μg/mL antigen, autologous B-LCL, Day 55",8875 RLU
same,"Proliferation (luminescent ATP assay), Mean","[2]; T-cell line 165-E7G, 2.5 μg/mL antigen, autologous B-LCL, Day 55",10248 RLU
same,"Mean, ATP proliferation assay","[2]; T-cell line 165-E7G, 3 μg/mL, Day 40",6610
same,"Proliferation (luminescent ATP assay), Mean","[2]; T-cell line 165-E7G, 5 μg/mL antigen, autologous B-LCL, Day 55",26934 RLU
same,"Proliferation (luminescent ATP assay), Mean","[2]; T-cell line 165-E7G, 10 μg/mL antigen, autologous B-LCL, Day 55",30721 RLU
same,"Mean, ATP proliferation assay","[2]; T-cell line 165-E7G, 10 μg/mL, Day 40",14279
same,"Proliferation (luminescent ATP assay), Mean","[2]; T-cell line 165-E9G, 1 μg/mL antigen, Day 50 of culturing, No Antigen Value 1742",1889 RLU
same,"Mean, ATP proliferation assay","[2]; T-cell line 165-E9G, 1 μg/mL, Day 40",2961
same,"Proliferation (luminescent ATP assay), Mean","[2]; T-cell line 165-E9G, 1.25 μg/mL antigen, autologous B-LCL",253 RLU
same,"Proliferation (luminescent ATP assay), Mean","[2]; T-cell line 165-E9G, 2.5 μg/mL antigen, autologous B-LCL",1647 RLU
same,"Proliferation (luminescent ATP assay), Mean","[2]; T-cell line 165-E9G, 3 μg/mL antigen, Day 50 of culturing, No Antigen Value 1742",5974 RLU
same,"Mean, ATP proliferation assay","[2]; T-cell line 165-E9G, 3 μg/mL, Day 40",7837
same,"Proliferation (luminescent ATP assay), Mean","[2]; T-cell line 165-E9G, 5 μg/mL antigen, autologous B-LCL",12964 RLU
same,"Proliferation (luminescent ATP assay), Mean","[2]; T-cell line 165-E9G, 10 μg/mL antigen, autologous B-LCL",13809 RLU
same,"Mean, ATP proliferation assay","[2]; T-cell line 165-E9G, 10 μg/mL, Day 40",24935
same,"Proliferation (luminescent ATP assay), Mean","[2]; T-cell line 165-E9G, 30 μg/mL antigen, Day 50 of culturing, No Antigen Value 1742",39472 RLU
same,"Proliferation (luminescent ATP assay), Mean","[2]; T-cell line 165-E9G, 10 μpg/mL antigen, Day 50 of culturing, No Antigen Value 1742",37352 RLU
same,"Mean, ATP proliferation assay","[2]; T-cell line 165-F2G, 1 μg/mL, Day 40",1753
same,"Mean, ATP proliferation assay","[2]; T-cell line 165-F2G, 3 μg/mL, Day 40",1422
same,"Mean, ATP proliferation assay","[2]; T-cell line 165-F2G, 10 μg/mL, Day 40",1502
same,"Mean, ATP proliferation assay","[2]; T-cell line 165-F5G, 1 μg/mL, Day 40",5669
same,"Proliferation (luminescent ATP assay), Mean","[2]; T-cell line 165-F5G, 1.25 μg/mL antigen, autologous B-LCL",1071 RLU
same,"Proliferation (luminescent ATP assay), Mean","[2]; T-cell line 165-F5G, 2.5 μg/mL antigen, autologous B-LCL",19012 RLU
same,"Mean, ATP proliferation assay","[2]; T-cell line 165-F5G, 3 μg/mL, Day 40",14024
same,"Proliferation (luminescent ATP assay), Mean","[2]; T-cell line 165-F5G, 5 μg/mL antigen, autologous B-LCL",45384 RLU
same,"Proliferation (luminescent ATP assay), Mean","[2]; T-cell line 165-F5G, 10 μg/mL antigen, autologous B-LCL",48029 RLU
same,"Mean, ATP proliferation assay","[2]; T-cell line 165-F5G, 10 μg/mL, Day 40",23774
same,"Mean, ATP proliferation assay","[2]; T-cell line 165-F8G, 1 μg/mL, Day 40",4804
same,"Mean, ATP proliferation assay","[2]; T-cell line 165-F8G, 3 μg/mL, Day 40",6841
same,"Mean, ATP proliferation assay","[2]; T-cell line 165-F8G, 10 μg/mL, Day 40",11880
same,"Proliferation (luminescent ATP assay), Mean","[2]; T-cell line 165-F10G, 1 μg/mL antigen, Day 50 of culturing, No Antigen Value 3752",4734 RLU
same,"Mean, ATP proliferation assay","[2]; T-cell line 165-F10G, 1 μg/mL, Day 40",6015
same,"Proliferation (luminescent ATP assay), Mean","[2]; T-cell line 165-F10G, 1.25 μg/mL antigen, autologous B-LCL",5731 RLU
same,"Proliferation (luminescent ATP assay), Mean","[2]; T-cell line 165-F10G, 2.5 μg/mL antigen, autologous B-LCL",38905 RLU
